Like-named read-outs stand apart in the source and are kept apart here.
Key:
Type in all cases: physicochemical
[1] = Specific surface area by nitrogen adsorption isotherms (BET); conditions: for Specific surface area: nitrogen adsorption isotherms, BET
Procedure: Specific surface area of the porous anhydrous crystalline trehalose was measured by the nitrogen adsorption isotherms using “MODEL ASAP-2400”, a specific surface area/pore size distribution analyzer commercialized by Micromeritics, Georgia, USA. […] The result was analyzed by the BET (Brunnauer, Emmet, and Teller) method. The commercial anhydrous crystalline trehalose, a reagent grade, commercialized by Hayashibara Biochemical Laboratories Inc., Okayama, Japan, was used as a control. […] Further, those pore size distribution charts are in FIG. 19. […] The results of the analysis on the specific surface area and the pore size distribution are summarized in Table 7, and the pore size distribution chart was in FIG. 24. As a control, “MALTOSE OM”, a hydrous crystalline maltose product with maltose purity of 98% or higher, produced by Hayashibara Co., Ltd., Okayama, Japan, was used.

[2] = Oil-keeping ability with salad oil; set-up: key to Oil-keeping ability: (5 g salad oil / g saccharide added at endpoint) x 100; conditions: for Oil-keeping ability: (5 g salad oil / amount of added saccharide) x 100
Procedure: The oil-keeping ability of each crystalline saccharide was measured using the porous anhydrous crystalline trehalose prepared by treating at 70° C. for 60 min in Example 1, the control hydrous crystalline trehalose, and the control anhydrous crystalline trehalose as crystalline trehalose samples; and the porous anhydrous crystalline maltose prepared by the method in Example 3, the control hydrous crystalline β-maltose, and the control anhydrous crystalline α-maltose, and the control anhydrous crystalline β-maltose as crystalline maltose samples, and the results were compared.
The measurement of the oil-keeping ability of the crystalline saccharide was carried out according to the method disclosed in Japanese Patent Kokai No. 31,650/84. Five grams of “NISSHIN SALAD OIL”, a salad oil commercialized by Nisshin OiliO Group, Ltd., Tokyo, Japan, was placed in a 50-ml plastic container, and then gradually admixed with each powdery crystalline saccharide with stirring. […] When the amount of the mixed saccharide is further increased, the agglomerate increase in solidity and then loosen. The point that the agglomerate is loosened is estimated to be the endpoint and the oil-keeping ability was calculated using the following formula. Oil-Keeping Ability =(The amount of salad oil(5 g)/the amount of added PCS*)×100 *: Powdery crystalline saccharide tm Formula 1

[3] = Pore size distribution by the mercury filling method; conditions: for Median pore diameter: control maltose values are from space between particles, not pores
[4] = Dissolution test against cold water at 10° C.; conditions: for Time required for dissolution, No. 1 / Time required for dissolution, No. 2 / Time required for dissolution, No. 3 / Time required for dissolution, No. 4 / Time required for dissolution, No. 5 / Time required for dissolution, Average: 20 ml water 10° C., about 300 rpm, 0.5 g trehalose or 0.2 g maltose; for Time required for dissolution, Average: average of 5; for Dissolution in cold water in comparison with controls: cold water 10° C.
Procedure: A dissolution test against cold water at 10° C. was carried out using the porous anhydrous crystalline trehalose prepared by treating at 70° C. for 60 min in Example 1, the porous anhydrous crystalline maltose prepared by the method in Example 3, and the porous hydrous crystalline maltose prepared by the method in Example 5, as samples. The results were compared with those of the controls, anhydrous crystalline trehalose, hydrous crystalline trehalose, and hydrous crystalline maltose.
Twenty milliliters of 10° C.-cold water was placed in a test tube with an internal diameter of 18 mm, and then stirred using a stirring bar. A crystalline saccharide sample was put into the test tube, and the time required for the complete dissolution (for the disappearance of precipitate particles) was measured. The amount of samples was set to be 0.5 g in the case of trehalose and to be 0.2 g in the case of maltose, and the stirring rate was set to be about 300 rpm in any case. The measurement of time for dissolution under the above conditions was carried out 5-times at each sample.

[5] = Flax seed oil powder: keeping of powdery form; conditions: 1 part flax seed oil + 10 parts saccharide as base; listed as control hydrous crystalline trehalose
Procedure: One part by weight of flax seed oil was admixed with 10 parts by weight of the porous anhydrous crystalline trehalose, prepared by treating at 70° C. for 60 min in Example 1, and then the mixture was kneaded to make into a powdery product. In the same manner, powdery products were prepared by using “TREHA®”, hydrous crystalline trehalose commercialized by Hayashibara Shoji Inc., Okayama, Japan, and anhydrous crystalline trehalose, prepared from hydrous crystalline trehalose by drying in vacuo at a high temperature according to the conventional method, as controls. […] The flaxseed oil powder can be preferably used as a supplement.

[6] = Crystal moisture content (Karl Fischer) on moisture absorption and drying
Procedure: Hydrous crystalline saccharides were prepared from the respective porous anhydrous crystalline saccharide using the porous anhydrous crystalline trehalose, obtained by treating at 70° C. for 60 min in Example 1, and the porous anhydrous crystalline maltose, obtained by treating at 70° C. for 480 min in Example 3, as materials. About 50 g of the porous anhydrous crystalline saccharide and about 150 ml of deionized water were placed in respective container. Then, the both open containers were placed in the same closed vessel and leaved to stand at 27° C. for two days. By the treatment, the anhydrous crystalline saccharide was allowed to absorb moisture and converted into hydrous crystal. The resulting hydrous crystal was dried in a drying machine at 50° C. for one hour to remove excess moisture. The moisture contents of the porous anhydrous crystalline trehalose and the porous anhydrous crystalline maltose before and after the treatment to absorb moisture and after drying are in Table 6. The moisture content of crystals was measured by the conventional Karl Fischer's method.

[7] = listed as Porous hydrous crystalline β-maltose (Present invention)
[8] = listed as porous hydrous crystalline maltose
[9] = listed as Porous anhydrous crystalline β-maltose (Present invention)
[10] = listed as porous anhydrous crystalline maltose

SMILES: OC[C@H]1O[C@H](O[C@H]2[C@H](O)[C@@H](O)C(O)O[C@@H]2CO)[C@H](O)[C@@H](O)[C@@H]1O (mixture of isomers) [Anhydrous crystalline β-maltose (Control)] [reference compound]
- Specific surface area [1]: 0.82 m^2/g
- Specific surface area ([1]; listed as anhydrous crystalline β-maltose): 0.82 m^2/g
- Oil-keeping ability [2]: 40
- Intrusion volume [3]: (No pore)
- Median pore diameter [3]: 14.70 μm

SMILES: OC[C@H]1O[C@H](O[C@H]2[C@H](O)[C@@H](O)C(O)O[C@@H]2CO)[C@H](O)[C@@H](O)[C@@H]1O (mixture of isomers) [Porous hydrous crystalline maltose, maltose]
- Time required for dissolution, No. 1 [4, 7]: 67 s
- Time required for dissolution, No. 2 [4, 7]: 66 s
- Time required for dissolution, No. 3 [4, 7]: 64 s
- Time required for dissolution, No. 4 [4, 7]: 68 s
- Time required for dissolution, No. 5 [4, 7]: 65 s
- Time required for dissolution, Average [4, 7]: 66 s
- Dissolution in cold water in comparison with controls [4]: rapidly dissolved in cold water
- Specific surface area relative to control crystalline saccharide ([1]; compared with control(s)): about 3 folds
- Specific surface area [1]: 1.39 m^2/g
- Specific surface area [1, 8]: 1.39 m^2/g
- Intrusion volume [3]: 0.77 mL/g
- Pore diameter of clear peak in pore size distribution chart [3]: less than 5 μm
- Median pore diameter [3]: 2.82 μm
- Intrusion volume [3, 8]: 0.77 mL/g

SMILES: OC[C@H]1O[C@H](O[C@H]2O[C@H](CO)[C@@H](O)[C@H](O)[C@H]2O)[C@H](O)[C@@H](O)[C@@H]1O [Hydrous crystalline trehalose (Control), α-D-glucosyl α-D-glucoside]
- Powdery form of flax seed oil powder [5]: could not keep powdery forms
- Time required for dissolution, No. 1 [4]: 106 s
- Time required for dissolution, No. 2 [4]: 130 s
- Time required for dissolution, No. 3 [4]: 121 s
- Time required for dissolution, No. 4 [4]: 135 s
- Time required for dissolution, No. 5 [4]: 123 s
- Time required for dissolution, Average [4]: 123 s
- Oil-keeping ability [2]: 38.5
- Oil-keeping ability ([2]; listed as control hydrous crystalline trehalose): 38.5

SMILES: OC[C@H]1O[C@H](O[C@H]2[C@H](O)[C@@H](O)C(O)O[C@@H]2CO)[C@H](O)[C@@H](O)[C@@H]1O (mixture of isomers) [Anhydrous crystalline α-maltose (Control)] [reference compound]
- Time required for dissolution, No. 1 [4]: 37 s
- Time required for dissolution, No. 2 [4]: 35 s
- Time required for dissolution, No. 3 [4]: 39 s
- Time required for dissolution, No. 4 [4]: 38 s
- Time required for dissolution, No. 5 [4]: 36 s
- Time required for dissolution, Average [4]: 37 s
- Specific surface area [1]: 0.48 m^2/g
- Specific surface area ([1]; listed as anhydrous crystalline α-maltose): 0.48 m^2/g
- Oil-keeping ability [2]: 41.7
- Intrusion volume [3]: (No pore)
- Median pore diameter [3]: 13.00 μm

SMILES: OC[C@H]1O[C@H](O[C@H]2[C@H](O)[C@@H](O)C(O)O[C@@H]2CO)[C@H](O)[C@@H](O)[C@@H]1O (mixture of isomers) [Hydrous crystalline β-maltose (Control), maltose]
- Time required for dissolution, No. 1 [4]: 118 s
- Time required for dissolution, No. 2 [4]: 113 s
- Time required for dissolution, No. 3 [4]: 114 s
- Time required for dissolution, No. 4 [4]: 119 s
- Time required for dissolution, No. 5 [4]: 116 s
- Time required for dissolution, Average [4]: 116 s
- Specific surface area [1]: 0.46 m^2/g
- Specific surface area ([1]; listed as control hydrous crystalline β-maltose): 0.46 m^2/g
- Specific surface area ([1]; listed as hydrous crystalline β-maltose): 0.46 m^2/g
- Oil-keeping ability ([2]; listed as Hydrous crystalline maltose (Control)): 45.5
- Intrusion volume [3]: (No pore)
- Median pore diameter [3]: 11.20 μm

SMILES: OC[C@H]1O[C@H](O[C@H]2O[C@H](CO)[C@@H](O)[C@H](O)[C@H]2O)[C@H](O)[C@@H](O)[C@@H]1O [Porous anhydrous crystalline trehalose (treated at 50° C. fo] [α-D-glucosyl α-D-glucoside]
- Specific surface area [1]: 3.306 m^2/g
- Intrusion volume [3]: 0.22 mL/g
- Mode pore diameter [3]: 0.29 μm
- Remarks (pores) [3]: Having clear pores
- Median pore diameter [3]: 0.21 μm

SMILES: OC[C@H]1O[C@H](O[C@H]2[C@H](O)[C@@H](O)C(O)O[C@@H]2CO)[C@H](O)[C@@H](O)[C@@H]1O (mixture of isomers) [Porous anhydrous crystalline maltose, maltose]
- Crystal moisture content, after drying ([6]; after moisture absorption and drying at 50° C. for one hour): 5.14 %, w/w
- Crystal moisture content, before treatment ([6]; before moisture absorption): 0.32 %, w/w
- Crystal moisture content, after treatment ([6]; closed vessel with water, 27° C., two days): 7.35 %, w/w
- Time required for dissolution, No. 1 [4, 9]: 30 s
- Time required for dissolution, No. 2 [4, 9]: 31 s
- Time required for dissolution, No. 3 [4, 9]: 33 s
- Time required for dissolution, No. 4 [4, 9]: 29 s
- Time required for dissolution, No. 5 [4, 9]: 32 s
- Time required for dissolution, Average [4, 9]: 31 s
- Dissolution in cold water in comparison with controls [4]: rapidly dissolved in cold water
- Specific surface area [1]: 3.39 m^2/g
- Specific surface area [1, 10]: 3.39 m^2/g
- Oil-keeping ability [2, 9]: 143
- Oil-keeping ability ([2]; listed as porous anhydrous crystalline β-maltose): 143
- Oil-keeping ability relative to control ([2]; compared with control crystalline saccharide): about 3 folds
- Intrusion volume [3]: 1.05 mL/g
- Pore diameter of clear peak in pore size distribution chart [3]: less than 5 μm
- Median pore diameter [3]: 1.26 μm
- Intrusion volume [3, 10]: 1.05 mL/g

Source: patent publication US8188268B2, “Porous crystalline saccharide, its preparation and uses” (Kabushiki Kaisha Hayashibara Seibutsu Kagaku Kenkyujo, priority 2005, dated 2012)
